Results from patent US20090326008A1, “NF-kappa B Inhibitor” (priority 2006, published 2009).

How the values were obtained:
TNFα = assay: Relative TNFα mRNA expression in IL-1β-stimulated MKN-45 cells (real-time PCR); assay type: cell-based, human; settings: IL-1β-stimulated DMSO-treated cells = 100%, ACTB reference
Experimental: (§1) RNA was extracted from the cells used in Example 2 according to the manufacturer's protocol for ABI Prism 6100 Nucleic Acid PrepStation (a nucleic acid isolation system, product of Applied Biosystems). More specifically, after removal of the culture supernatant and washing with 1 mL of PBS, 250 μL of Nucleic Acid Purification Lysis Solution (Part No. 4305895, Applied Biosystems) was added, and then agitated using a shaker for 2 to 3 minutes. The Lysis Solution containing the cell lysate was collected, and the total amount was transferred to the wells of RNA Purification Tray (Part No. 4305673, Applied Biosystems), which had been pre-wet with 40 μL of Nucleic Acid Purification Wash Solution I (Part No. 4305891, Applied Biosystems) beforehand. Aspiration (20% pressure) was performed for 2 minutes to adsorb the sample onto the RNA Purification Tray, followed by sequentially adding and aspirating (20% pressure, 2 min.) 500 μL of Wash Solution I, Nucleic Acid Purification (Part No. 4305891, Applied Biosystems), 400 μL of Wash Solution II, Nucleic Acid Purification (Part No. 4305890, product of Applied Biosystems), 400 μL of the Wash Solution II, and 300 μL of the Wash Solution II in that order. Aspiration (90% pressure) was performed for 5 minutes to remove the water content from the RNA Purification Trays. After addition of 150 μL of Elution Solution, Nucleic Acid Purification (Part No. 4305893, product of Applied Biosystems), aspiration (20% pressure) was performed for 2 minutes, while collecting the outflow. This was used as collected RNA solution.
(§2) Absorbance of the collected RNA solution at 260 nm was measured using a microplate spectrophotometer (“SpectraMax Plus”, product of Molecular Devices) with an analysis software (“SOFTmaxPRO ver.3.1.2”, product of Molecular Devices), and the RNA concentration was determined from the absorbance. Likewise, absorbance at 280 nm was measured and the purity of the RNA was determined using the analysis software.
(§3) cDNA was synthesized according to the manufacturer's protocol for TaqMan® Reverse Transcription Reagents (Part No. N808-0234, product of Applied Biosystems). More specifically, about 0.5 μg of RNA, 2.5 μL of 10×RT buffer, 5.5 μL of MgCl2 solution, 5 μL of dNTP mixture, 1.25 μL of random hexamer (primers), 0.5 μL of RNase inhibitor, and 0.63 μL of MultiScribe Reverse Transcriptase (product of Applied Biosystems) were added to each collected RNA sample in a tube, and DEPC-treated water was added to make a total volume of 25 μL and stirred. A reaction consisting of 25° C. for 10 minutes, 48° C. for 30 minutes, and 95° C. for 5 minutes was performed using a PCR thermal cycler (“TaKaRa PCR Thermal Cycler Dice”, product of Takara Bio Inc.) to prepare a cDNA solution.
(§4) PCR was performed according to the manufacturer's protocol for TaqMan® Gene Expression Assays (product of Applied Biosystems). More specifically, 5 μL of TaqMan® Fast Universal PCR Master Mix (product of Applied Biosystems), 0.5 μL of TaqMan® Gene Expression Assays for the target gene (gene-specific probe and primer sets, product of Applied Biosystems), and 4.5 μL of the above-obtained cDNA solution were added to each sample and stirred. A PCR reaction consisting of heating at 95° C. for 20 seconds, followed by 40 cycles consisting of heating at 95° C. for 3 seconds and annealing and extension at 60° C. for 30 seconds was performed using a real-time PCR device (“Applied Biosystems 7500 Real-Time PCR System”) with SDS v1.4 Software (product of Applied Biosystems). Threshold cycle (Ct) values were calculated using the software.
(§5) The Assay IDs of the TaqMan® Gene Expression Assays for the target genes used are as follows:
(§6) The expression level of each gene was determined according to the following formula using the level of ACTB as a reference standard.
(§7) (Relative mRNA expression level)=2̂−{(Ct value of the target gene)−(Ct value of ACTB)} […]

COX2 = assay: Relative COX2 mRNA expression in IL-1β-stimulated MKN-45 cells (real-time PCR); assay type: cell-based, human; settings: IL-1β-stimulated DMSO-treated cells = 100%, ACTB reference
Experimental: as §1, §2, §3, §4, §5, §6, §7

For `COc1ccc(CC2SC(=S)NC2=O)c2c1N(CCC(C)C)C(=O)CC2` (centres unmarked) [Test Compound 965], the “TNFa relative mRNA expression level, Mean” value (TNFα) was 63.0% and the “COX2 relative mRNA expression level, Mean” value (COX2) was 37.6%.
